Reference: the supplement of paper PMC8149375

Assays:
Conditions in all cases: treatment: drug + dasatinib (fixed dose, not stated); 5 days
[1] = test system: 769-P; experiment: GI50 of drug in presence of dasatinib; higher = less potent
Experimental: (§1)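 Primary HTS combination arm: 8 RCC cell lines treated with 8 doses (up to 10 uM) of each library drug plus a fixed dose of dasatinib (dose not stated) for 5 days; viability read by CellTiter-Glo and normalised to DMSO. GI50 was fitted with XLfit, AUC is the area under the dose-response curve, and minimum viability is the lowest fraction of DMSO viability across doses.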

[2] = test system: 786-O; experiment: as above
Experimental: as §1

[3] = test system: A498; experiment: as above
Experimental: as §1

[4] = test system: ACHN; experiment: as above
Experimental: as §1

[5] = test system: CAKI-1; experiment: as above
Experimental: as §1

[6] = test system: SN12C; experiment: as above
Experimental: as §1

[7] = test system: TK-10; experiment: as above
Experimental: as §1

[8] = test system: UO-31; experiment: as above
Experimental: as §1

[9] = test system: 769-P; experiment: minimum viability across doses, drug + dasatinib, relative to DMSO (fraction); higher = less growth inhibition
Experimental: as §1

[10] = test system: 786-O; experiment: as above
Experimental: as §1

[11] = test system: A498; experiment: as above
Experimental: as §1

[12] = test system: ACHN; experiment: as above
Experimental: as §1

[13] = test system: CAKI-1; experiment: as above
Experimental: as §1

[14] = test system: SN12C; experiment: as above
Experimental: as §1

[15] = test system: TK-10; experiment: as above
Experimental: as §1

[16] = test system: UO-31; experiment: as above
Experimental: as §1

[17] = test system: 769-P; experiment: AUC of dose-response viability curve, drug + dasatinib, normalised to DMSO (arbitrary (AUC of normalised viability)); higher = less growth inhibition
Experimental: as §1

[18] = test system: 786-O; experiment: as above
Experimental: as §1

[19] = test system: A498; experiment: as above
Experimental: as §1

[20] = test system: ACHN; experiment: as above
Experimental: as §1

[21] = test system: CAKI-1; experiment: as above
Experimental: as §1

[22] = test system: SN12C; experiment: as above
Experimental: as §1

[23] = test system: TK-10; experiment: as above
Experimental: as §1

[24] = test system: UO-31; experiment: as above
Experimental: as §1

GI50 of drug [2] | GI50 of drug [4] | SMILES | GI50 of drug [1] | GI50 of drug [3] | GI50 of drug [5] | GI50 of drug [6] | GI50 of drug [7] | GI50 of drug [8] | minimum viability across doses [9] | minimum viability across doses [10] | minimum viability across doses [11] | minimum viability across doses [12] | minimum viability across doses [13] | minimum viability across doses [14] | minimum viability across doses [15] | minimum viability across doses [16] | AUC of dose-response viability curve [17] | AUC of dose-response viability curve [18] | AUC of dose-response viability curve [19] | AUC of dose-response viability curve [20] | AUC of dose-response viability curve [21] | AUC of dose-response viability curve [22] | AUC of dose-response viability curve [23] | AUC of dose-response viability curve [24]
> 10000 nM | 6530 nM | CS(=O)(=O)O.N#CC1(c2ccc(NC(=O)c3cccnc3NCc3ccncc3)cc2)CCCC1 [Apatinib (YN968D1)] + Cc1nc(Nc2ncc(C(=O)Nc3c(C)cccc3Cl)s2)cc(N2CCN(CCO)CC2)n1 [dasatinib] | 9470 nM | > 10000 nM | > 10000 nM | > 10000 nM | > 10000 nM | > 10000 nM | 0.49 | 0.624 | 0.874 | 0.389 | 0.572 | 0.656 | 0.636 | 0.988 | 2.43 | 2.64 | 3.76 | 2.18 | 2.39 | 2.45 | 2.5 | 4.78
81.3 nM | 34.7 nM | Cn1c(=O)n(-c2ccc(C(C)(C)C#N)cc2)c2c3cc(-c4cnc5ccccc5c4)ccc3ncc21 [BEZ235 (NVP-BEZ235)] + Cc1nc(Nc2ncc(C(=O)Nc3c(C)cccc3Cl)s2)cc(N2CCN(CCO)CC2)n1 [dasatinib] | 59.6 nM | 152 nM | 73.7 nM | 164 nM | 306 nM | 129 nM | 0.0926 | 0.0643 | 0.0638 | 0.0631 | 0.0361 | 0.146 | 0.122 | 0.00603 | 1.35 | 1.44 | 1.65 | 1.23 | 1.35 | 1.63 | 1.84 | 1.66
990 nM | 26.6 nM | CCN1CCN(c2ccc(Nc3cc(N(C)C(=O)Nc4c(Cl)c(OC)cc(OC)c4Cl)ncn3)cc2)CC1 [BGJ398 (NVP-BGJ398)] + Cc1nc(Nc2ncc(C(=O)Nc3c(C)cccc3Cl)s2)cc(N2CCN(CCO)CC2)n1 [dasatinib] | 2890 nM | 9590 nM | 26.6 nM | 131 nM | 1350 nM | 1260 nM | 0.234 | 0.249 | 0.435 | 0.0494 | 0.0483 | 0.0804 | 0.221 | 0.00819 | 2.3 | 1.97 | 2.87 | 1.29 | 1.15 | 1.66 | 2.18 | 2.64
> 10000 nM | 147 nM | COC(=O)c1ccc2c(c1)NC(=O)/C2=C(\Nc1ccc(N(C)C(=O)CN2CCN(C)CC2)cc1)c1ccccc1 [BIBF1120 (Vargatef)] + Cc1nc(Nc2ncc(C(=O)Nc3c(C)cccc3Cl)s2)cc(N2CCN(CCO)CC2)n1 [dasatinib] | > 10000 nM | > 10000 nM | 430 nM | 2620 nM | > 10000 nM | 1730 nM | 0.656 | 0.694 | 0.664 | 0.23 | 0.125 | 0.412 | 0.637 | 0.128 | 2.47 | 2.98 | 3.35 | 1.73 | 1.77 | 2.3 | 2.88 | 2.64

Further lines, the molecule ahead of its results:

SMILES | GI50 of drug [2] | GI50 of drug [4] | GI50 of drug [1] | GI50 of drug [3] | GI50 of drug [5] | GI50 of drug [6] | GI50 of drug [7] | GI50 of drug [8] | minimum viability across doses [9] | minimum viability across doses [10] | minimum viability across doses [11] | minimum viability across doses [12] | minimum viability across doses [13] | minimum viability across doses [14] | minimum viability across doses [15] | minimum viability across doses [16] | AUC of dose-response viability curve [17] | AUC of dose-response viability curve [18] | AUC of dose-response viability curve [19] | AUC of dose-response viability curve [20] | AUC of dose-response viability curve [21] | AUC of dose-response viability curve [22] | AUC of dose-response viability curve [23] | AUC of dose-response viability curve [24]
COc1ccc(-c2ccc3c(N4CCOC[C@@H]4C)nc(N4CCOC[C@@H]4C)nc3n2)cc1CO [AZD8055] + Cc1nc(Nc2ncc(C(=O)Nc3c(C)cccc3Cl)s2)cc(N2CCN(CCO)CC2)n1 [dasatinib] | 7.26 nM | < 3 nM | 59.9 nM | 100 nM | 24 nM | 39.8 nM | 36.9 nM | 65.2 nM | 0.0691 | 0.018 | 0.182 | 0.044 | 0.0255 | 0.135 | 0.053 | 0.00778 | 1.22 | 0.846 | 1.68 | 0.585 | 0.988 | 1.3 | 1.21 | 1.29
CN(C)C/C=C/C(=O)Nc1cc2c(Nc3ccc(F)c(Cl)c3)ncnc2cc1O[C@H]1CCOC1 [Afatinib (BIBW2992)] + Cc1nc(Nc2ncc(C(=O)Nc3c(C)cccc3Cl)s2)cc(N2CCN(CCO)CC2)n1 [dasatinib] | 953 nM | 4.16 nM | 29.1 nM | 1490 nM | 241 nM | 2300 nM | 72.5 nM | 885 nM | 0.0233 | 0.00818 | 0.00955 | 0.00184 | 0.0121 | 0.0274 | 0.0817 | 0.00619 | 1.31 | 1.92 | 2.54 | 1.02 | 1.57 | 2.02 | 1.58 | 1.88
S=C(NCc1ccc2c(c1)OCO2)N1CCN(c2ncnc3c2oc2ccccc23)CC1 [Amuvatinib (MP-470)] + Cc1nc(Nc2ncc(C(=O)Nc3c(C)cccc3Cl)s2)cc(N2CCN(CCO)CC2)n1 [dasatinib] | 1310 nM | 1390 nM | 1830 nM | 4380 nM | > 10000 nM | 1970 nM | 2920 nM | 2680 nM | 0.282 | 0.0475 | 0.245 | 0.156 | 0.57 | 0.0599 | 0.263 | 0.0639 | 2.2 | 1.94 | 3.02 | 1.9 | 2.31 | 2.03 | 2.39 | 3.23
S=C(NCc1ccc2c(c1)OCO2)N1CCN(c2ncnc3c2oc2ccccc23)CC1 [Amuvatinib (MP-470)_R2] + Cc1nc(Nc2ncc(C(=O)Nc3c(C)cccc3Cl)s2)cc(N2CCN(CCO)CC2)n1 [dasatinib] | 1240 nM | 1230 nM | 2550 nM | 3370 nM | > 10000 nM | 1630 nM | 2640 nM | 2840 nM | 0.219 | 0.0149 | 0.251 | 0.17 | 0.583 | 0.0319 | 0.26 | 0.0367 | 2.38 | 1.87 | 2.86 | 1.85 | 2.48 | 2.06 | 2.24 | 3.36
O=C1C(=O)N(Cc2ccc(Cl)c(Cl)c2)c2ccccc21 [Apoptosis Activator 2] + Cc1nc(Nc2ncc(C(=O)Nc3c(C)cccc3Cl)s2)cc(N2CCN(CCO)CC2)n1 [dasatinib] | > 10000 nM | 1990 nM | 8610 nM | 8370 nM | 2230 nM | 4600 nM | 7390 nM | 9070 nM | 0.486 | 0.0758 | 0.411 | 0.295 | 0.187 | 0.265 | 0.454 | 0.211 | 2.46 | 1.72 | 3.56 | 1.92 | 2.19 | 2.47 | 2.34 | 4.31
CCN1CCN(C(=O)Cc2ccc(Nc3ncc(F)c(Nc4ccc(C(=O)Nc5ccccc5Cl)cc4)n3)cc2)CC1 [Aurora A Inhibitor I] + Cc1nc(Nc2ncc(C(=O)Nc3c(C)cccc3Cl)s2)cc(N2CCN(CCO)CC2)n1 [dasatinib] | 164 nM | 130 nM | 652 nM | 8980 nM | 281 nM | 1190 nM | 1010 nM | 552 nM | 0.0246 | 0.0991 | 0.53 | 0.0307 | 0.00201 | 0.00416 | 0.275 | 0.0547 | 1.98 | 1.57 | 3.16 | 1.53 | 1.63 | 2.09 | 2.18 | 2.58
CNC(=O)c1ccccc1Sc1ccc2c(/C=C/c3ccccn3)n[nH]c2c1 [Axitinib] + Cc1nc(Nc2ncc(C(=O)Nc3c(C)cccc3Cl)s2)cc(N2CCN(CCO)CC2)n1 [dasatinib] | > 10000 nM | 2980 nM | 1400 nM | 7690 nM | 439 nM | 622 nM | > 10000 nM | 7850 nM | 0.159 | 0.635 | 0.457 | 0.271 | 0.162 | 0.262 | 0.715 | 0.392 | 2.02 | 2.8 | 3.26 | 2.14 | 1.8 | 2.08 | 2.91 | 3.37
CC[C@@H]1C(=O)N(C)c2cnc(Nc3ccc(C(=O)N[C@H]4CC[C@H](N5CCN(CC6CC6)CC5)CC4)cc3OC)nc2N1C(C)C [BI6727 (Volasertib)] + Cc1nc(Nc2ncc(C(=O)Nc3c(C)cccc3Cl)s2)cc(N2CCN(CCO)CC2)n1 [dasatinib] | 10.5 nM | 27.8 nM | 43.2 nM | 138 nM | 55.2 nM | 58.6 nM | 160 nM | 151 nM | 0.0202 | 0.0043 | 0.0361 | 0.00653 | 0.00782 | 0.0772 | 0.00827 | 0.0151 | 1.16 | 0.664 | 1.83 | 1.13 | 1.25 | 1.37 | 1.61 | 2.02
CC[C@@H]1C(=O)N(C)c2cnc(Nc3ccc(C(=O)NC4CCN(C)CC4)cc3OC)nc2N1C1CCCC1 [BI 2536] + Cc1nc(Nc2ncc(C(=O)Nc3c(C)cccc3Cl)s2)cc(N2CCN(CCO)CC2)n1 [dasatinib] | 8.79 nM | 4.47 nM | 56.8 nM | 38.4 nM | 7.85 nM | 32.1 nM | 405 nM | 61.4 nM | 0.0343 | 0.0183 | 0.0692 | 0.0392 | 0.0866 | 0.052 | 0.0551 | 0.0114 | 1.28 | 0.643 | 1.51 | 0.778 | 0.981 | 1.24 | 1.68 | 1.3
